Results reported in the supplement of paper PMC9386025.

Key:
Assay in all cases: drug sensitivity score (DSS) (DSS (dimensionless)); higher = more sensitive (stronger drug response)
OVSAHO = test system: OVSAHO
Summary of the method: (§1)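 Ovarian cancer cell lines, with shRNA induced by 100 ng/ml doxycycline for at least three days, and patient-derived cultures were seeded at 1 000 – 1 500 cells per well in 384-well plates holding drugs pre-plated in five concentrations over a 10,000-fold range. After three days at 37 °C and 5.0 % CO2, viability was read as CellTiter-Glo luminescence on a PHERAstar FS. Each drug's dose-response curve was summarised as a drug sensitivity score calculated as previously described.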

JHOS2 = test system: JHOS2
Summary of the method: as §1

FIMM-PDC7 = patient-derived ovarian cancer cells; conditions: genetic perturbation: none (patient-derived cell culture)
Summary of the method: as §1

FIMM-PDC6 = patient-derived ovarian cancer cells; conditions: genetic perturbation: none (patient-derived cell culture)
Summary of the method: as §1

Kuramochi = test system: Kuramochi
Summary of the method: as §1

FIMM-PDC4 = patient-derived ovarian cancer cells; conditions: genetic perturbation: none (patient-derived cell culture)
Summary of the method: as §1

FIMM-PDC5 = patient-derived ovarian cancer cells; conditions: genetic perturbation: none (patient-derived cell culture)
Summary of the method: as §1

FIMM-PDC1 = patient-derived ovarian cancer cells; conditions: genetic perturbation: none (patient-derived cell culture)
Summary of the method: as §1

FIMM-PDC3 = patient-derived ovarian cancer cells; conditions: genetic perturbation: none (patient-derived cell culture)
Summary of the method: as §1

[1] = genetic perturbation: DOX-induced PTK7 shRNA knockdown
[2] = genetic perturbation: DOX-induced control shRNA

Row | SMILES | drug sensitivity score (OVSAHO; [1]) | drug sensitivity score (OVSAHO; [2]) | drug sensitivity score (JHOS2; [1]) | drug sensitivity score (JHOS2; [2]) | drug sensitivity score (FIMM-PDC7) | drug sensitivity score (FIMM-PDC6) | drug sensitivity score (Kuramochi; [1]) | drug sensitivity score (Kuramochi; [2]) | drug sensitivity score (FIMM-PDC4) | drug sensitivity score (FIMM-PDC5) | drug sensitivity score (FIMM-PDC1) | drug sensitivity score (FIMM-PDC3)
1 | CO[C@H]1C[C@@H]2CC[C@@H](C)[C@@](O)(O2)C(=O)C(=O)N2CCCC[C@H]2C(=O)O[C@H]([C@H](C)C[C@@H]2CC[C@@H](OCCO)[C@H](OC)C2)CC(=O)[C@H](C)/C=C(\C)[C@@H](O)[C@@H](OC)C(=O)[C@H](C)C[C@H](C)/C=C/C=C/C=C/1C [Everolimus] | 0.9 | 6.2 | < 0 | 3 | 0.4 | < 0 | 4.1 | 2.2 | 5.3 | 8.3 | < 0 | 2.7
2 | CCn1c(=O)c(-c2ccc(Cl)cc2Cl)cc2cnc(Nc3ccc(N4CCNCC4)c(F)c3)nc21 [FRAX486] | 10.8 | 4.8 | 4.5 | 8 | 6.5 | 9.7 | 3.7 | 7.6 | 9.3 | 14.7 | 4.5 | 6.5
3 | Cc1cnc(Nc2ccc(OCCN3CCCC3)cc2)nc1Nc1cccc(S(=O)(=O)NC(C)(C)C)c1 [Fedratinib] | 7.2 | 8.8 | 8.5 | 9.1 | 2.9 | 3 | 8.8 | 8.7 | 7 | 10.7 | 3.65 | 4.3
4 | CON(C)C(=O)N1N=C(c2cc(F)ccc2F)S[C@@]1(CCCN)c1ccccc1 [Filanesib] | 7.8 | 6.8 | 9.2 | 3 | 2.9 | 6.6 | 10.3 | 1.1 | 12.3 | 17.4 | 6.65 | 10.7
5 | CCCCCCCCc1ccc(CCC(N)(CO)CO)cc1 [Fingolimod] | 6.4 | 6.1 | 7.1 | 5.3 | 7 | 5.7 | 7.4 | 5 | 7.2 | 8.3 | 5.8 | 5.8
6 | O=c1[nH]c(=O)n([C@H]2C[C@H](O)[C@@H](CO)O2)cc1F [Floxuridine] | 4 | 6.6 | < 0 | 0.6 | 3.5 | 2.3 | 8.25 | 14.1 | 0.1 | 3.5 | 6.7 | 3.7
7 | O=C(NOCCO)c1ccc2cncn2c1Nc1ccc(I)cc1F [GDC-0623] | 0.4 | 1.5 | < 0 | 10 | 9 | < 0 | 1.4 | 1.5 | 7.4 | 6.9 | < 0 | 1.8
8 | CCOC(=O)CCNc1cc(N2CCc3ccccc3CC2)nc(-c2ccccn2)n1 [GSK-J4] | < 0 | 11.7 | 0.7 | 2.2 | 0.3 | < 0 | 5.3 | 7.4 | < 0 | < 0 | 0.2 | < 0
9 | Cc1cc(Nc2cc(CN3CCOCC3)c3nc(C)c(Cc4ccc(Cl)cc4F)n3n2)n[nH]1 [Gandotinib] | 6.6 | 5.1 | 7 | 2.7 | 7.2 | 4.6 | 5.2 | 5.6 | 7.4 | 8.6 | 5.25 | 7.1
10 | CC(C)c1cc(-c2n[nH]c(=O)n2-c2ccc3c(ccn3C)c2)c(O)cc1O [Ganetespib] | < 0 | 10.8 | 13.7 | 12.5 | 14 | 13.6 | 11.1 | 1.9 | 19.5 | 14.3 | 13.4 | 12.9
11 | CN(C)C1CCN(C(=O)c2ccc(NC(=O)Nc3ccc(-c4nc(N5CCOCC5)nc(N5CCOCC5)n4)cc3)cc2)CC1 [Gedatolisib] | 12.7 | 13.2 | 6.9 | 11.7 | 10.7 | 16.9 | 11.3 | 10.8 | 15.7 | 16.9 | 10.5 | 9
12 | COc1cc2ncnc(Nc3ccc(F)c(Cl)c3)c2cc1OCCCN1CCOCC1 [Gefitinib] | 7.7 | 4.1 | 3.5 | 3.5 | 10.7 | 13 | 4.3 | 3.3 | 15.2 | 18.6 | 3.4 | 10.9
13 | Nc1ccn([C@@H]2O[C@H](CO)[C@@H](O)C2(F)F)c(=O)n1 [Gemcitabine] | 6.1 | 4 | 19.5 | 7.1 | 13.3 | 14.2 | < 0 | 0.8 | 9.8 | 21.8 | 5.15 | 9.4
14 | CCN(CC)Cc1ccc2cc(COC(=O)Nc3ccc(C(=O)NO)cc3)ccc2c1 [Givinostat] | 7.6 | 6.9 | 6 | 5.7 | 2.1 | 5.8 | 8.55 | 4.8 | 0.9 | 7.2 | 5.5 | 6.4
15 | COc1cc2c(cc1-c1c(C)noc1C)ncc1[nH]c(=O)n([C@H](C)c3ccccn3)c12 [I-BET151] | 5.7 | 10.3 | 8.4 | 6.2 | 9.9 | 5.9 | 10.6 | 3.7 | 3.9 | 8.9 | 3.15 | 4.5
16 | C=CC(=O)N1CCC[C@@H](n2nc(-c3ccc(Oc4ccccc4)cc3)c3c(N)ncnc32)C1 [Ibrutinib] | 2.9 | 2.6 | 0.6 | < 0 | 2.5 | 6.4 | 2.2 | 1.1 | 7.7 | 10.1 | 0.35 | 5.6
17 | C#Cc1cccc(Nc2ncnc3cc4c(cc23)OCCOCCOCCO4)c1 [Icotinib] | 0.8 | 0.5 | < 0 | 1 | 5.3 | 6.1 | 0.6 | 1.6 | 10.5 | 12.7 | 0.8 | 8.6
